Tests used:
DDR1 = DDR1 (Homo sapiens (Human), UniProt Q08345); assay: DDR1 binding assay (LanthaScreen Europium Kinase Binding assay); conditions: 5 nM DDR1, 20 nM Kinase Tracer 178, 1 h at rt; Ki from IC50 by Cheng-Prusoff; read-out: Ki DDR1
Procedure: (§1) DDR1 and DDR2 binding assays were performed using Life Technologies LanthaScreen™ Europium Kinase Binding assay. The compounds were incubated with 5 nM DDR1 (Carna Biosciences) or 5 nM DDR2 (Life Technologies) for 1 h at rt in white 384-well OptiPlate (PerkinElmer), containing 20 nM or 10 nM Kinase Tracer 178 respectively and 2 nM Europium labelled anti-GST antibody (Life Technologies) in assay buffer (50 mM HEPES pH 7.5, 10 mM MgCI2, 1 mM EGTA and 0.01% BRIJ35). The ratio of fluorescence emission 665 nm/615 nm after excitation at 340 nm was obtained using the Tecan Spark 20M plate reader. IC50 values were determined in GraphPad Prism 7.0 software, using 4 parameter model: log(inhibitor) vs. response. IC50 values were converted in Ki using the Cheng-Prusoff equation (Ki=IC50/(1+[Tracer]/Kd).

DDR2 = DDR2 (Homo sapiens (Human), UniProt Q16832); assay: DDR2 binding assay (LanthaScreen Europium Kinase Binding assay); conditions: 5 nM DDR2, 10 nM Kinase Tracer 178, 1 h at rt; Ki from IC50 by Cheng-Prusoff; read-out: Ki DDR2
DDR2, sequence (Q16832 22-855): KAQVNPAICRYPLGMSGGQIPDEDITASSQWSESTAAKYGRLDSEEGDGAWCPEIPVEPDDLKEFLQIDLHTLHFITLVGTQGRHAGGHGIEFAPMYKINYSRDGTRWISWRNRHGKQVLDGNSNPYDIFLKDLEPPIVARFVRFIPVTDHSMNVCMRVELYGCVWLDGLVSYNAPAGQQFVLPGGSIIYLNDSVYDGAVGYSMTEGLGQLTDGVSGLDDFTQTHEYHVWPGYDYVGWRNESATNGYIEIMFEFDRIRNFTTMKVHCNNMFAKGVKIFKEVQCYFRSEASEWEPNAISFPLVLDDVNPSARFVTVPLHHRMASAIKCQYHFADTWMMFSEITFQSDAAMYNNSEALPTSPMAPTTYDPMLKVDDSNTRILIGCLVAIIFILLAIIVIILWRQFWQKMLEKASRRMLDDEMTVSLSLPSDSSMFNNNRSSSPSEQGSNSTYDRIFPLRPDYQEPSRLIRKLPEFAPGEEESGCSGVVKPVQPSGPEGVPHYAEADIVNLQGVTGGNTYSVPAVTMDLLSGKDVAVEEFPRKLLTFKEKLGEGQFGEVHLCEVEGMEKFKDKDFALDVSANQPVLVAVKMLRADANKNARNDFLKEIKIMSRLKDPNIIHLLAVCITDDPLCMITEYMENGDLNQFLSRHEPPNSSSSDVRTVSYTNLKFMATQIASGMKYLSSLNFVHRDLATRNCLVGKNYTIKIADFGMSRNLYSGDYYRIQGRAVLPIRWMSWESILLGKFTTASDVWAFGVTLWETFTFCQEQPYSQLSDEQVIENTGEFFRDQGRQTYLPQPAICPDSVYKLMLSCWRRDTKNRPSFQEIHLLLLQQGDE
Procedure: as §1

DDR1, sequence (Q08345 19-913): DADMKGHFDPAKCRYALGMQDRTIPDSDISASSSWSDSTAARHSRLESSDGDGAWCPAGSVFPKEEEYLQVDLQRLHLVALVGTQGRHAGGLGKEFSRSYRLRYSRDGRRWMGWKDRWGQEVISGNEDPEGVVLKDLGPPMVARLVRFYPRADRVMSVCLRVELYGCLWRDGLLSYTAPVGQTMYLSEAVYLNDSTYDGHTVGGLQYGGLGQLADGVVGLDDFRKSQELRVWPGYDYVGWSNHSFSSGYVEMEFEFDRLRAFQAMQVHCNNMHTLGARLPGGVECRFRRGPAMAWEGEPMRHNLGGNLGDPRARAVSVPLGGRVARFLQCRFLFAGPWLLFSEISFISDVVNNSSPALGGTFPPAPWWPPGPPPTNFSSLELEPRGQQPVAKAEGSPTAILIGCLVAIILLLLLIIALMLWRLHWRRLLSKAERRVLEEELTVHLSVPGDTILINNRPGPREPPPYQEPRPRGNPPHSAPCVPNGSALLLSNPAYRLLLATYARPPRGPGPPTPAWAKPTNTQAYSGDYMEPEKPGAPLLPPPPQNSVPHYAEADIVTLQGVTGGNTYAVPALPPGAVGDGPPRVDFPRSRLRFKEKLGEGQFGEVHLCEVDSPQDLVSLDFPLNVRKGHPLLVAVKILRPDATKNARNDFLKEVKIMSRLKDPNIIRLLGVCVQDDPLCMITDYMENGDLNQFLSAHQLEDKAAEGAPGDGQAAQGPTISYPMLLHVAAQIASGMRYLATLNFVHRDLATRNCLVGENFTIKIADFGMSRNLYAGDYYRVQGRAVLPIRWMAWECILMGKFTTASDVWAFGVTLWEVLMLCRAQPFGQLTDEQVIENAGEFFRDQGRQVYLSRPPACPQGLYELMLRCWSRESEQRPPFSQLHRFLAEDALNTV

SMILES: Cc1ccc(C(=O)Nc2cncc(C(F)(F)F)c2)cc1C1CN(c2cnn3ccncc23)C1 [Example 184, 4-methyl-3-(1-(pyrazolo[1,5-a]pyrazin-3-yl)azetidin-3-yl)-N-(5-(trifluoromethyl)pyridin-3-yl)benzamide]
- Ki (DDR1): < 5 nM
- Ki (DDR2): 5 to 25 nM
